From the supplement of paper PMC11061612

Columns and labels:
Assay in all cases: Bliss excess, mean over the matrix (fraction); higher = more synergy
A101D (Melanoma) = system: A101D (Melanoma)
Procedure, shortened: (§1)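 Cell lines in DMEM/F12 or RPMI with 10% FBS were plated in 1536-well plates, held 24 hours at 37°C, 5% CO2, then given two-drug dose matrices for 72 hours (DMSO typically 0.2%). Viability was read by CellTiter-Glo 2.0 luminescence and scaled as inhibition from 0 (vehicle wells) to 1 (blank wells). Combination Emax is the second-highest inhibition in the matrix; Bliss excess is observed combination effect minus expected EA + EB − EA·EB, EA and EB being single-agent effects.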

COLO-792 (Melanoma) = system: COLO-792 (Melanoma)
Procedure, shortened: as §1

[1] = system: SK-HEP-1 (Hepatocellular Carcinoma)
Procedure, shortened: as §1

[2] = system: HT55 (Colorectal Carcinoma)
Procedure, shortened: as §1

[3] = system: CESS (Acute Myeloid Leukemia)
Procedure, shortened: as §1

[4] = system: NCI-H2087 (Lung Adenocarcinoma)
Procedure, shortened: as §1

[5] = system: GA-10 (Burkitt's Lymphoma)
Procedure, shortened: as §1

PEO1 (Ovarian Carcinoma) = system: PEO1 (Ovarian Carcinoma)
Procedure, shortened: as §1

[6] = system: JVM-2 (B-Cell Non-Hodgkin's Lymphoma)
Procedure, shortened: as §1

[7] = system: HCC1395 (Breast Carcinoma)
Procedure, shortened: as §1

[8] = system: CGTH-W-1 (Thyroid Gland Carcinoma)
Procedure, shortened: as §1

[9] = system: SW620 (Colorectal Carcinoma)
Procedure, shortened: as §1

[10] = system: A253 (Head and Neck Carcinoma)
Procedure, shortened: as §1

AU565 (Breast Carcinoma) = system: AU565 (Breast Carcinoma)
Procedure, shortened: as §1

NB13 (Neuroblastoma) = system: NB13 (Neuroblastoma)
Procedure, shortened: as §1

[11] = system: JHU-022 (Oral Cavity Carcinoma)
Procedure, shortened: as §1

[12] = system: 22RV1 (Prostate Carcinoma)
Procedure, shortened: as §1

[13] = system: GCT (Other Solid Carcinomas)
Procedure, shortened: as §1

[14] = system: DMS-53 (Small Cell Lung Carcinoma)
Procedure, shortened: as §1

5637 (Bladder Carcinoma) = system: 5637 (Bladder Carcinoma)
Procedure, shortened: as §1

Structure (SMILES) | Bliss excess (A101D (Melanoma)) | Bliss excess (COLO-792 (Melanoma)) | Bliss excess [1] | Bliss excess [2] | Bliss excess [3] | Bliss excess [4] | Bliss excess [5] | Bliss excess (PEO1 (Ovarian Carcinoma)) | Bliss excess [6] | Bliss excess [7] | Bliss excess [8] | Bliss excess [9] | Bliss excess [10] | Bliss excess (AU565 (Breast Carcinoma)) | Bliss excess (NB13 (Neuroblastoma)) | Bliss excess [11] | Bliss excess [12] | Bliss excess [13] | Bliss excess [14] | Bliss excess (5637 (Bladder Carcinoma))
CN(C)CCCOc1ccc(-c2ccc3ncc4c(c3c2)n(C2CCOCC2)c(=O)n4C)cn1 [AZD0156] + C=CCn1c(=O)c2cnc(Nc3ccc(N4CCN(C)CC4)cc3)nc2n1-c1cccc(C(C)(C)O)n1 [AZD1775] (first compound max 1 µM, partner max 1 µM) | -0.0616 | -0.017 | -0.0574 | -0.0671 | -0.0059 | -0.071 | 0.026 | -0.0442 | -0.0372 | -0.0648 | -0.033 | -0.0262 | -0.0389 | -0.016 | 0.0215 | -0.0446 | -0.095 | -0.0811 | -0.028 | -0.0851
CN(C)CCCOc1ccc(-c2ccc3ncc4c(c3c2)n(C2CCOCC2)c(=O)n4C)cn1 [AZD0156] + CCN(CCO)CCCOc1ccc2c(Nc3cc(CC(=O)Nc4cccc(F)c4)[nH]n3)ncnc2c1 [AZD2811] (first compound max 1 µM, 7x7, partner max 1 µM) | -0.0198 | 0.0167 | -0.0194 | 0.0091 | 0.0178 | -0.0251 | 0.0158 | -0.0421 | 0.0105 | -0.0936 | -0.0076 | -0.0064 | -0.0119 | 0.0021 | 0.0458 | -0.0143 | -0.0279 | -0.0126 | -0.0251 | 0.0043
CN(C)CCCOc1ccc(-c2ccc3ncc4c(c3c2)n(C2CCOCC2)c(=O)n4C)cn1 [AZD0156] + C[C@@H]1COCCN1C2=NC(=NC(=C2)C3(CC3)[S@](=N)(=O)C)C4=C5C=CNC5=NC=C4 [AZD6738] (first compound max 1 µM, 7x7, partner max 10 µM) | 0.0058 | -0.0297 | -0.0034 | -0.0042 | 0.0386 | -0.0008 | 0.0921 | -0.0327 | 0.0025 | -0.0245 | -0.0189 | 0.0308 | 0.0145 | 0.0094 | 0.058 | -0.0103 | -0.0678 | 0.0062 | -0.0249 | -0.0155
C=CCn1c(=O)c2cnc(Nc3ccc(N4CCN(C)CC4)cc3)nc2n1-c1cccc(C(C)(C)O)n1 [AZD1775] + C[C@@H]1COCCN1C2=NC(=NC(=C2)C3(CC3)[S@](=N)(=O)C)C4=C5C=CNC5=NC=C4 [AZD6738] (first compound max 1 µM, partner max 10 µM) | -0.0089 | 0.0941 | -0.0271 | 0.0434 | 0.0388 | -0.0317 | 0.0096 | -0.0234 | 0.0203 | 0.0091 | 0.0368 | 0.0144 | 0.0764 | -0.0083 | 0.0101 | -0.0276 | -0.0536 | 0.0157 | 0.0115 | 0.007
CCN(CCO)CCCOc1ccc2c(Nc3cc(CC(=O)Nc4cccc(F)c4)[nH]n3)ncnc2c1 [AZD2811] + C=CCn1c(=O)c2cnc(Nc3ccc(N4CCN(C)CC4)cc3)nc2n1-c1cccc(C(C)(C)O)n1 [AZD1775] (first compound max 1 µM, partner max 1 µM) | -0.0166 | 0.043 | 0.0336 | 0.0302 | 0.0173 | -0.0831 | 0.0303 | -0.0025 | 0.0686 | -0.0904 | -0.0014 | -0.0367 | 0.0566 | 0.0437 | 0.0265 | -0.0217 | -0.0367 | -0.0211 | -0.0378 | -0.0232
CCN(CCO)CCCOc1ccc2c(Nc3cc(CC(=O)Nc4cccc(F)c4)[nH]n3)ncnc2c1 [AZD2811] + C[C@@H]1COCCN1C2=NC(=NC(=C2)C3(CC3)[S@](=N)(=O)C)C4=C5C=CNC5=NC=C4 [AZD6738] (first compound max 1 µM, 7x7, partner max 10 µM) | -0.0414 | 0.0336 | -0.0397 | -0.0227 | -0.0259 | -0.0712 | -0.057 | -0.0718 | -0.0809 | -0.0579 | -0.0461 | -0.0451 | -0.0471 | -0.002 | -0.0727 | -0.0357 | -0.103 | -0.0318 | -0.0357 | -0.0712
CCN(CCO)CCCOc1ccc2c(Nc3cc(CC(=O)Nc4cccc(F)c4)[nH]n3)ncnc2c1 [AZD2811] + O=C(c1cc(Cc2n[nH]c(=O)c3ccccc23)ccc1F)N1CCN(C(=O)C2CC2)CC1 [Olaparib] (first compound max 1 µM, 7x7, partner max 10 µM) | -0.0005 | -0.0187 | -0.0121 | 0.0248 | 0.0591 | 0.0128 | -0.0469 | -0.0019 | -0.125 | -0.0546 | 0.008 | 0.0318 | 0.0485 | -0.011 | 0.0211 | -0.021 | 0.0017 | 0.0585 | -0.014 | -0.0349
COc1nnc2ccc(N3CCC(c4ccc(OCCN5CCN(C)C(=O)[C@H]5C)cc4)CC3)nn12 [AZD5153] + C=CCn1c(=O)c2cnc(Nc3ccc(N4CCN(C)CC4)cc3)nc2n1-c1cccc(C(C)(C)O)n1 [AZD1775] (first compound max 1 µM, partner max 1 µM) | -0.0825 | 0.0823 | -0.0166 | -0.0112 | -0.0643 | -0.0368 | -0.0367 | 0.058 | -0.0959 | -0.113 | 0.0137 | -0.0753 | -0.0328 | -0.0144 | -0.0645 | -0.0698 | 0.0047 | 0.0168 | 0.0269 | -0.0321
COc1nnc2ccc(N3CCC(c4ccc(OCCN5CCN(C)C(=O)[C@H]5C)cc4)CC3)nn12 [AZD5153] + CC1(C)CCC(CN2CCN(c3ccc(C(=O)NS(=O)(=O)c4ccc(NCC5CCOCC5)c([N+](=O)[O-])c4)c(Oc4cnc5[nH]ccc5c4)c3)CC2)=C(c2ccc(Cl)cc2)C1 [Venetoclax] (first compound max 1 µM, 7x7, partner max 1 µM) | -0.0731 | -0.0162 | -0.0153 | -0.0387 | -0.0713 | -0.0427 | -0.0497 | -0.0771 | -0.0081 | -0.0241 | -0.0407 | -0.0671 | -0.0724 | 0.0002 | -0.137 | -0.0043 | -0.0308 | -0.107 | -0.0406 | -0.0407
COc1nnc2ccc(N3CCC(c4ccc(OCCN5CCN(C)C(=O)[C@H]5C)cc4)CC3)nn12 [AZD5153] + CCN(CCO)CCCOc1ccc2c(Nc3cc(CC(=O)Nc4cccc(F)c4)[nH]n3)ncnc2c1 [AZD2811] (first compound max 1 µM, 7x7, partner max 1 µM) | -0.104 | -0.0406 | -0.103 | -0.0479 | 0.0259 | -0.0645 | -0.122 | -0.0137 | -0.0498 | -0.0005 | 0.0228 | -0.0002 | -0.0153 | -0.0016 | -0.0336 | -0.0601 | -0.0252 | -0.0201 | 0.0175 | -0.107
COc1nnc2ccc(N3CCC(c4ccc(OCCN5CCN(C)C(=O)[C@H]5C)cc4)CC3)nn12 [AZD5153] + C[C@@H]1COCCN1C2=NC(=NC(=C2)C3(CC3)[S@](=N)(=O)C)C4=C5C=CNC5=NC=C4 [AZD6738] (first compound max 1 µM, 7x7, partner max 10 µM) | -0.0186 | 0.0774 | -0.0522 | 0.0392 | -0.0554 | 0.0404 | -0.0177 | 0.0911 | -0.061 | -0.0241 | 0.0604 | 0.0276 | 0.0315 | 0.009 | -0.0149 | -0.0134 | -0.0019 | 0.029 | 0.037 | -0.0001
COc1nnc2ccc(N3CCC(c4ccc(OCCN5CCN(C)C(=O)[C@H]5C)cc4)CC3)nn12 [AZD5153] + Cc1c2c(nn1C)CSCc1cc(n(C)n1)CSc1cc(c3ccccc3c1)OCCCc1c(C(=O)O)n(C)c3c-2c(Cl)ccc13 [AZD5991] (first compound max 1 µM, 7x7, partner max 1 µM) | 0.0406 | 0.0196 | -0.085 | -0.0445 | -0.0124 | -0.0328 | -0.0598 | -0.0209 | -0.0404 | -0.0112 | -0.025 | -0.0457 | 0.0071 | -0.0342 | 0.0066 | -0.0703 | 0.0107 | -0.0425 | 0.007 | -0.0555
COc1nnc2ccc(N3CCC(c4ccc(OCCN5CCN(C)C(=O)[C@H]5C)cc4)CC3)nn12 [AZD5153] + Cn1cnc2c(F)c(Nc3ccc(Br)cc3Cl)c(C(=O)NOCCO)cc21 [Selumetinib] (first compound max 1 µM, 7x7, partner max 10 µM) | -0.081 | -0.055 | -0.0764 | 0.0584 | -0.0651 | -0.0192 | -0.0813 | -0.0509 | 0.0655 | -0.024 | -0.0059 | -0.0083 | 0.0009 | 0.0278 | -0.0616 | -0.0807 | 0.0239 | -0.0506 | -0.0043 | 0.0132
Cc1c2c(nn1C)CSCc1cc(n(C)n1)CSc1cc(c3ccccc3c1)OCCCc1c(C(=O)O)n(C)c3c-2c(Cl)ccc13 [AZD5991] + C1CN(CCC1(C(=O)N[C@@H](CCO)C2=CC=C(C=C2)Cl)N)C3=NC=NC4=C3C=CN4 [Capivasertib] (first compound max 1 µM, 7x7, partner max 3 µM) | 0.0252 | 0.0076 | 0.0194 | -0.0129 | -0.0114 | -0.0295 | 0.0138 | -0.0428 | 0.0245 | -0.003 | 0.0091 | -0.0325 | 0.0473 | 0.0218 | 0.0719 | -0.0273 | 0.0404 | -0.0219 | 0.0168 | -0.004
Cc1c2c(nn1C)CSCc1cc(n(C)n1)CSc1cc(c3ccccc3c1)OCCCc1c(C(=O)O)n(C)c3c-2c(Cl)ccc13 [AZD5991] + CN(C)CCCOc1ccc(-c2ccc3ncc4c(c3c2)n(C2CCOCC2)c(=O)n4C)cn1 [AZD0156] (first compound max 1 µM, 7x7, partner max 1 µM) | -0.0801 | 0.0191 | 0.0098 | 0.0318 | -0.026 | 0.005 | -0.0564 | -0.0155 | -0.0266 | – | -0.0151 | 0.0345 | 0.0058 | 0.0204 | 0.0007 | -0.0079 | -0.167 | 0.0338 | 0.0854 | -0.0014
